This note sets out measurements from patent US11655216B2 (priority 2016, dated 2023).

Read-outs that look alike come from different tables or passages of the source.

Test [1] addresses T1, glutathione-S-transferase (GST) tagged LXRalpha LBD (ligand binding domain) (Homo sapiens, UniProt Q13133).
T1 construct: purchased Invitrogen pv4655
T1 sequence (Q13133 209-447 limits assumed): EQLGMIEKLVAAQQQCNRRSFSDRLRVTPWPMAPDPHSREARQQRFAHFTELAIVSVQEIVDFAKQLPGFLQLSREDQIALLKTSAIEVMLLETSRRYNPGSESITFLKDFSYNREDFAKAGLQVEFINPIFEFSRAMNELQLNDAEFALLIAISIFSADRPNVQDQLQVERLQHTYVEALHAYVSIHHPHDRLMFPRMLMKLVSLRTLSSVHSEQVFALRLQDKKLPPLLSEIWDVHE
As to the kind of experiment: biochemical. A digest of the protocol: (§1)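 Measures ligand-driven coactivator peptide binding by time-resolved energy transfer between terbium-tagged anti-GST antibody and fluorescein-labelled peptide. Incubation is at room temperature.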

Test [2] has as its target T2, glutathione-S-transferase (GST) tagged LXRbeta LBD (ligand binding domain) (Homo sapiens, UniProt P55055).
T2 construct: purchased Invitrogen pv4658
T2 sequence (P55055 222-460 limits assumed): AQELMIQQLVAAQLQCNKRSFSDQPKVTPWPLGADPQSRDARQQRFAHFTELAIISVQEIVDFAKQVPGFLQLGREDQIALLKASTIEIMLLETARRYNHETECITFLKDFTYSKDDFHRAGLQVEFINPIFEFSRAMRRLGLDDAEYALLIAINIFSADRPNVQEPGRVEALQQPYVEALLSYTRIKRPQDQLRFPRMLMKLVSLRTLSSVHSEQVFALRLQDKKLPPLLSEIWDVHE
As to the kind of experiment: LanthaScreen TR-FRET Liver X Receptor Coactivator Assay, LXR beta. It counts as biochemical. Conditions: for EC50: LXR beta IP, potency (Inflection Point), compound-induced co-activator recruitment, TR-FRET; for Emax: read-out: LXR beta actiivty at max dose, efficacy (% Emax) in relation to reference dual agonist T0901317. A digest of the protocol: as §1

Setting [3] is: LXR alpha IP, potency (Inflection Point), compound-induced co-activator recruitment, TR-FRET.
Where [4] appears, read: read-out: LXR alpha actiivty at max dose, efficacy (% Emax) in relation to reference dual agonist T0901317.
Where [5] appears, read: potency (Inflection Point), compound-induced co-activator recruitment, TR-FRET.
Setting [6] is: efficacy (% Emax) in relation to reference dual agonist T0901317, read-out: LXR alpha actiivty at max dose.
Setting [7] is: read-out: LXR alpha actiivty at max dose.

Take `CN(C)C(=O)c1ccc(OCC(C)(C)CCC2CCN(C(=O)C(O)(c3ccccc3)C(F)(F)F)CC2)cc1Cl` (single isomer, unassigned) [Example 29-1, (R or S)-2-chloro-4-(2,2-dimethyl-4-(1-(3,3,3-trifluoro-2-hydroxy-2-phenylpropanoyl)piperidin-4-yl)butoxy)-N,N-dimethylbenzamide]: the results for the EC50 in test [1] (setting [3]) and in test [2] were 911 nM and 173 nM, respectively. Moreover, the Emax amounted to 27% in test [1] (setting [4]) and 48% in test [2].
As to `Cc1nc(OC2CCC3(CC2)CCN(C(=O)C(O)(c2cccc(OC4CC4)c2)C(F)(F)F)CC3)ccc1C(=O)N(C)C` (single isomer, unassigned) [Example 2-1, 6-(3-((R or S)-2-(3-cyclopropoxyphenyl)-3,3,3-trifluoro-2-hydroxypropanoyl)-3-azaspiro[5.5]undecan-9-yloxy)-N,N,2-trimethylnicotinamide], the “LXR alpha IP” value in test [1] (setting [5]) is given as “No IP”. The Emax in test [1] (setting [4]) came to 0%; in test [2], 46%. The EC50 in test [2] came to 140 nM.
Consider `O=C(c1ccc(OCCCCC2CCN(C(=O)[C@](O)(c3ccccc3)C(F)(F)F)CC2)cc1Cl)N1CC[C@@H](O)C1` (single isomer, unassigned) [Example 8-3, (R or S)-1-(4-(4-(3-chloro-4-((R or S)-3-hydroxy-pyrrolidine-1-carbonyl)phenoxy)butyl)piperidin-1-yl)-3,3,3-trifluoro-2-hydroxy-2-phenylpropan-1-one], for which the EC50 in test [1] (setting [3]) is 1010 nM; in test [2], 17 nM. Also, the Emax in test [1] (setting [4]) was 26%; in test [2] it was 39%.
The corresponding values for `CCC(C)(C(=O)N1CCC2(CC1)C[C@H]2CCOc1ccc(C(=O)N(C)C)c(Cl)c1)c1ccccc1` (single isomer, unassigned) [Example 12-13, 2-chloro-N,N-dimethyl-4-(2-((1S or 1R)-6-(2-methyl-2-phenylbutanoyl)-6-azaspiro[2.5]octan-1-yl)ethoxy)benzamide] are 505 nM, 17 nM, 26% and 72%.
For `CN(C)C(=O)c1ccc(O[C@H]2C[C@@H](CC3CCN(C(=O)[C@](O)(c4cccc(C(F)(F)F)c4)C(F)(F)F)CC3)C2)cc1Cl` (single isomer, unassigned) [Example 37-6, 2-chloro-N,N-dimethyl-4-((1R,3s)-3-((1-((R or S)-3,3,3-trifluoro-2-hydroxy-2-(3-(trifluoromethyl)phenyl)propanoyl)piperidin-4-yl)methyl)cyclobutoxy) benzamide] the same measures were 602 nM, 15 nM, 31% and 119%.
Take `CN(C)C(=O)c1ccc(O[C@H]2C[C@@H](CC3CCN(C(=O)[C@](O)(c4cccc(C5CC5)c4)C(F)(F)F)CC3)C2)cc1Cl` (single isomer, unassigned) [Example 37-5, 2-chloro-4-((1R,3s)-3-((1-((R or S)-2-(3-cyclopropylphenyl)-3,3,3-trifluoro-2-hydroxypropanoyl)piperidin-4-yl)methyl)cyclobutoxy)-N,N-dimethylbenzamide]: the EC50 in test [1] (setting [3]) stood at 401 nM; in test [2] it was 6 nM. The Emax in test [1] (setting [4]) stood at 30%; in test [2], 134%.
Consider `CN(C)C(=O)c1ccc(OCCC2CC23CCN(C(=O)C2(c4ccccc4)CCCC2)CC3)cc1Cl` (single isomer, unassigned) [Example 12-1, (R or S)-2-chloro-N,N-dimethyl-4-(2-(6-(1-phenylcyclopentanecarbonyl)-6-azaspiro[2.5]octan-1-yl)ethoxy)benzamide], for which the Emax turned out to be 1% in test [1] (setting [6]) and 58% in test [2]. Further, the “LXR alpha IP” value in test [1] (setting [5]) is given as “No IP”. The compound also yielded an EC50 in test [2] of 24 nM.
Take `CN(C)C(=O)c1ccc(OCC2(CC3CCN(C(=O)C(O)(c4ccccc4)C(F)(F)F)CC3)CC2)cc1Cl` (single isomer, unassigned) [Example 17-1, (R or S)-2-chloro-N,N-dimethyl-4-((1-((1-(3,3,3-trifluoro-2-hydroxy-2-phenylpropanoyl)piperidin-4-yl)methyl)cyclopropyl)methoxy)benzamide]: the values for the EC50 in test [1] (setting [3]) and in test [2] were 1630 nM and 188 nM, respectively. In addition, the Emax in test [1] (setting [4]) was 19%; in test [2], 77%.
For the compound `CC(C[C@H]1CC12CCN(C(=O)C1(c3ccccc3)CCC1)CC2)Oc1ccc(C(=O)N(C)C)c(Cl)c1` (single isomer, unassigned) [Example 13-1, 2-chloro-N,N-dimethyl-4-((S or R)-1-((R or S)-6-(1-phenylcyclobutanecarbonyl)-6-azaspiro[2.5]octan-1-yl)propan-2-yloxy)benzamide], the Emax amounted to 25% in test [1] (setting [6]) and 110% in test [2]. In addition, the EC50 in test [1] (potency (Inflection Point), compound-induced co-activator recruitment, TR-FRET, read-out: LXR alpha IP) stood at 762 nM; in test [2], 87 nM.
On to `CNC(=O)c1ccc(OCC[C@@H]2C[C@@H]2C2CCN(C(=O)[C@](O)(c3cc(F)cc(F)c3)C(F)(F)F)CC2)cc1Cl` (single isomer, unassigned) [Example 10-3, 2-chloro-4-(2-((1S,2R or 1R, 2S)-2-(1-((R or S)-2-(3,5-difluorophenyl)-3,3,3-trifluoro-2-hydroxypropanoyl)piperidin-4-yl)cyclopropyl)ethoxy)-N-methylbenzamide], for which the figures for the EC50 in test [1] (setting [3]) and in test [2] were 28 nM and 2 nM, respectively. Moreover, the Emax in test [1] (setting [4]) worked out at 63%; in test [2], 116%.
As to `CN(C)C(=O)c1ccc(O[C@H]2C[C@@H](CC3CCN(C(=O)[C@](O)(c4ccccc4)C(F)(F)F)CC3)C2)cc1Cl` (single isomer, unassigned) [Example 37-1, 2-chloro-N,N-dimethyl-4-((1R,3s)-3-((1-((R or S)-3,3,3-trifluoro-2-hydroxy-2-phenylpropanoyl)piperidin-4-yl)methyl)cyclobutoxy)benzamide], the EC50 came out at 381 nM in test [1] (LXR alpha IP) and 10 nM in test [2]. The figures for the Emax in test [1] (setting [7]) and in test [2] were 42% and 131%, respectively.
Turning to `O=C(c1ccc(OCCCCC2CCN(C(=O)C(O)(c3ccccc3)C(F)(F)F)CC2)cc1Cl)N1C[C@H]2CC[C@@H]1C2` (single isomer, unassigned) [Example 8-14, (R or S)-1-(4-(4-(4-((1R,4S)-2-azabicyclo[2.2.1]heptane-2-carbonyl)-3-chlorophenoxy)butyl)piperidin-1-yl)-3,3,3-trifluoro-2-hydroxy-2-phenylpropan-1-one], the EC50 was found to be 227 nM in test [1] (setting [3]) and 38 nM in test [2]. The Emax turned out to be 19% in test [1] (setting [4]) and 48% in test [2].
Regarding `CN(C)C(=O)c1ccc(OCCC[C@H]2CC23CCN(C(=O)[C@](O)(c2ccccc2)C(F)(F)F)CC3)nc1Cl` (single isomer, unassigned) [Example 15-1, 2-chloro-N,N-dimethyl-6-(3-((S or R)-6-((R or S)-3,3,3-trifluoro-2-hydroxy-2-phenylpropanoyl)-6-azaspiro[2.5]octan-1-yl)propoxy)nicotinamide], the EC50 in test [1] (LXR alpha IP) stood at 506 nM; in test [2], 19 nM. Further, the Emax came out at 28% in test [1] (setting [7]) and 88% in test [2].
As to `CN(C)C(=O)c1ccc(OCCCCC2CCN(C(=O)C(O)(c3cccc(-c4cnn(C)c4)c3)C(F)(F)F)CC2)cc1Cl` (single isomer, unassigned) [Example 3-19, (R or S)-2-chloro-N,N-dimethyl-4-(4-(1-(3,3,3-trifluoro-2-hydroxy-2-(3-(1-methyl-1H-pyrazol-4-yl)phenyl)propanoyl)piperidin-4-yl)butoxy)benzamide], the EC50 in test [1] (setting [3]) is 1150 nM; in test [2] it was 124 nM. Besides, the figures for the Emax in test [1] (setting [4]) and in test [2] were 25% and 24%, respectively.
For `COc1cccc([C@@](O)(C(=O)N2CCC3(CC2)C[C@@H]3CCCOc2ccc(C(=O)N(C)C)c(Cl)c2)C(F)(F)F)c1` (single isomer, unassigned) [Example 14-6, 2-chloro-N,N-dimethyl-4-(3-((S or R)-6-((R or S)-3,3,3-trifluoro-2-hydroxy-2-(3-methoxyphenyl)propanoyl)-6-azaspiro[2.5]octan-1-yl)propoxy)benzamide] the same measures were 162 nM, 6 nM, 23% and 116%.
Consider `CC(C)[C@@](O)(C(=O)N1CCC2(CC1)C[C@H]2CCOc1ccc(C(=O)N(C)C)c(Cl)c1)C(F)(F)F` (single isomer, unassigned) [Example 12-15, 2-chloro-4-(2-((S or R)-6-((R or S)-2-hydroxy-3-methyl-2-(trifluoromethyl)butanoyl)-6-azaspiro[2.5]octan-1-yl)ethoxy)-N,N-dimethylbenzamide], for which the results for the EC50 in test [1] (setting [3]) and in test [2] were 2090 nM and 62 nM, respectively. The Emax in test [1] (setting [4]) was 37%; in test [2], 79%.
